Reference: article PMC12068666, “Synthesis of thiazole-integrated pyrrolotriazinones: evaluations of cytotoxicity and effects on PI3K levels in cancer cells” (Turkish Journal of Chemistry, 2025)

How the values were obtained:
NIH/3T3 cells = experiment: MTT assay, healthy cell line NIH/3T3; format: cell-based; conditions: Mus musculus, NIH3T3, 24 h treatment, mean ± SD
Method: (§1) MCF-7 (human ER + breast cancer, HTB-22, USA), A549 (human nonsmall cell lung cancer, ATTC CRM-CCL-185, USA), HepG2 (human liver cancer, ATTC HB-8065, USA), and NIH/3T3 (mouse embryonic fibroblast, ATCC, CRL-1658, USA) cells were maintained in DMEM supplemented with 10% fetal bovine serum and 1% penicillin/streptomycin. The cells were maintained under appropriate conditions (37 °C, 5% CO2).
(§2) The antiproliferative activity of the newly synthesized compounds was measured using the MTT assay as described in a previous study. Briefly, cells were seeded at a density of 6 × 10^3 cells/well and incubated for 24 h in a 37 °C humidified incubator with 5% CO2. Afterwards, the cells were treated with increasing concentrations (1, 2.5, 5, 10, 25, 50, 75, and 100 μM) of compounds and incubated for another 24 h. Moreover, some cells were incubated with doxorubicin (1, 5, 10, 25, and 50 μM) for comparison, while other cells treated only with 1% DMSO was used as the solvent control. After incubation, 20 μL of MTT solution (5 mg/mL in PBS) was added to each well, and the plate was incubated for 4 h under the same conditions. Following this period, the medium was discarded and replaced with DMSO. The absorbance of dissolved formazan crystals was measured using a multiplate reader. The IC50 value and the selectivity index of each compound were calculated as previously described.
(§3) The antiproliferative effect of all newly synthesized thiazole-integrated pyrrolotriazinone derivatives were assessed against cancer cell lines (MCF-7, A549, and HepG2) as well as a healthy cell line (NIH/3T3) using the MTT assay. The IC50 values were determined through the nonlinear regression algorithm for log (inhibitor) versus normalized response-variable slope, as implemented in GraphPad [Y = 100/(1 + 10^X−LogIC50), where X represents the logarithm of the inhibitor concentration and Y denotes the response]. Additionally, Selectivity Indices (SI: IC50 of healthy cells/IC50 of cancer cells) were calculated.

MCF-7 cells = experiment: MTT assay, antiproliferative activity, MCF-7; format: cell-based, human; conditions: for IC50: Homo sapiens, MCF7, MTT, 24 h treatment, mean ± SD; for Selectivity Index (SI) MCF-7: IC50 of healthy cells (NIH/3T3)/IC50 of cancer cells
Method: as §1, §2, §3

HepG2 cells = experiment: MTT assay, antiproliferative activity, HepG2; format: cell-based, human; conditions: for IC50: Homo sapiens, HepG2, MTT, 24 h treatment, mean ± SD; for Selectivity Index (SI) HepG2: IC50 of healthy cells (NIH/3T3)/IC50 of cancer cells
Method: as §1, §2, §3

A549 cells = experiment: MTT assay, antiproliferative activity, A549; format: cell-based, human; conditions: for IC50: Homo sapiens, A549, MTT, 24 h treatment, mean ± SD; for Selectivity Index (SI) A549: IC50 of healthy cells (NIH/3T3)/IC50 of cancer cells
Method: as §1, §2, §3

Row | SMILES | IC50 (MCF-7 cells) | IC50 (HepG2 cells) | IC50 (A549 cells) | IC50 (NIH/3T3 cells) | Selectivity Index (SI) MCF-7 (MCF-7 cells) | Selectivity Index (SI) HepG2 (HepG2 cells) | Selectivity Index (SI) A549 (A549 cells)
1 | COc1ccc(-c2csc(-n3ncc4cccn4c3=O)n2)cc1 [Compound 17, 3-(4-(4-methoxyphenyl)thiazol-2-yl)pyrrolo[1,2-d][1,2,4]triazin-4(3H)-one] | > 100 µM | > 100 µM | > 100 µM | > 100 µM | 1.34 | 1.22 | 1.44
2 | O=c1n(-c2nc(-c3ccc(F)cc3)cs2)ncc2cccn12 [Compound 20, 3-(4-(4-fluorophenyl)thiazol-2-yl)pyrrolo[1,2-d][1,2,4]triazin-4(3H)-one] | 39.8 ± 0.54 µM | 69.7 ± 1.26 µM | 44.5 ± 0.51 µM | > 100 µM | 4.93 | 2.81 | 4.41
3 | O=c1n(-c2nc(-c3cc4ccccc4o3)cs2)ncc2cccn12 [Compound 30, 3-(4-(benzofuran-2-yl)thiazol-2-yl)pyrrolo[1,2-d][1,2,4]triazin-4(3H)-one] | > 100 µM | > 100 µM | > 100 µM | > 100 µM | 1.57 | 1.90 | 1.51
4 | O=c1n(-c2nc(-c3ccc4ccccc4c3)cs2)ncc2cccn12 [Compound 29, 3-(4-(naphthalen-2-yl)thiazol-2-yl)pyrrolo[1,2-d][1,2,4]triazin-4(3H)-one] | > 100 µM | > 100 µM | > 100 µM | > 100 µM | 1.03 | 1.26 | 1.19
5 | O=c1n(-c2nc(-c3ccc([N+](=O)[O-])cc3)cs2)ncc2cccn12 [Compound 18, 3-(4-(4-nitrophenyl)thiazol-2-yl)pyrrolo[1,2-d][1,2,4]triazin-4(3H)-one] | 79.19 ± 0.61 µM | > 100 µM | > 100 µM | > 100 µM | 2.08 | 1.60 | 1.51
6 | COc1cccc2c1C(=O)c1c(O)c3c(c(O)c1C2=O)C[C@@](O)(C(=O)CO)C[C@@H]3O[C@H]1C[C@H](N)[C@H](O)[C@H](C)O1 [Dox, doxorubicin, reference compound] | 1.34 ± 0.07 µM | 1.27 ± 0.24 µM | 0.61 ± 0.12 µM | 3.56 ± 0.02 µM | 2.6 | 2.8 | 5.83
7 | O=c1n(-c2nc(-c3ccc(F)c(F)c3)cs2)ncc2cccn12 [Compound 24, 3-(4-(3,4-difluorophenyl)thiazol-2-yl)pyrrolo[1,2-d][1,2,4]triazin-4(3H)-one] | 33.2 ± 0.49 µM | 25.3 ± 1.06 µM | 45.23 ± 0.41 µM | > 100 µM | 4.72 | 6.19 | 3.46
8 | COc1ccc(-c2csc(-n3ncc4cccn4c3=O)n2)cc1OC [Compound 23, 3-(4-(3,4-dimethoxyphenyl)thiazol-2-yl)pyrrolo[1,2-d][1,2,4]triazin-4(3H)-one] | 15.2 ± 0.183 µM | 17.2 ± 0.81 µM | 43.3 ± 1.09 µM | 83.44 ± 0.15 µM | 5.49 | 4.85 | 
9 | O=c1n(-c2nc(-c3ccc(C(F)(F)F)cc3)cs2)ncc2cccn12 [Compound 19, 3-(4-(4-(trifluoromethyl)phenyl)thiazol-2-yl)pyrrolo[1,2-d][1,2,4]triazin-4(3H)-one] | 61.8 ± 1.42 µM | 52.8 ± 0.79 µM | 79.5 ± 1.13 µM | > 100 µM | 2.41 | 2.82 | 1.87
10 | O=c1n(-c2nc(-c3ccc(-c4ccccc4)cc3)cs2)ncc2cccn12 [Compound 28, 3-(4-([1,1′-biphenyl]-4-yl)thiazol-2-yl)pyrrolo[1,2-d][1,2,4]triazin-4(3H)-one] | 63.17 ± 0.35 µM | 44.8 ± 1.06 µM | 78.23 ± 0.05 µM | > 100 µM | 2.79 | 3.93 | 2.25

Continued, in another order:

Row | IC50 (MCF-7 cells) | IC50 (HepG2 cells) | IC50 (A549 cells) | SMILES | IC50 (NIH/3T3 cells) | Selectivity Index (SI) MCF-7 (MCF-7 cells) | Selectivity Index (SI) HepG2 (HepG2 cells) | Selectivity Index (SI) A549 (A549 cells)
11 | 91.2 ± 1.06 µM | > 100 µM | > 100 µM | O=c1n(-c2nc(-c3ccco3)cs2)ncc2cccn12 [Compound 31, 3-(4-(furan-2-yl)thiazol-2-yl)pyrrolo[1,2-d][1,2,4]triazin-4(3H)-one] | > 100 µM | 1.91 | 1.69 | 1.67
12 | > 100 µM | > 100 µM | > 100 µM | Cc1ccc(-c2csc(-n3ncc4cccn4c3=O)n2)cc1 [Compound 15, 3-(4-(p-tolyl)thiazol-2-yl)pyrrolo[1,2-d][1,2,4]triazin-4(3H)-one] | > 100 µM | 1.01 | 0.85 | 0.84
13 | > 100 µM | > 100 µM | > 100 µM | O=c1n(-c2nc(-c3ccccc3)cs2)ncc2cccn12 [Compound 14, 3-(4-phenylthiazol-2-yl)pyrrolo[1,2-d][1,2,4]triazin-4(3H)-one] | > 100 µM | 0.96 | 1.04 | 1.25
14 | 55.6 ± 1.05 µM | 51.85 ± 0.23 µM | 71.2 ± 0.74 µM | O=c1n(-c2nc(-c3ccc(Br)cc3)cs2)ncc2cccn12 [Compound 22, 3-(4-(4-bromophenyl)thiazol-2-yl)pyrrolo[1,2-d][1,2,4]triazin-4(3H)-one] | 93.46 ± 0.74 µM | 1.68 | 1.80 | 1.31
15 | > 100 µM | > 100 µM | > 100 µM | O=c1n(-c2nc(-c3ccc(O)cc3)cs2)ncc2cccn12 [Compound 16, 3-(4-(4-hydroxyphenyl)thiazol-2-yl)pyrrolo[1,2-d][1,2,4]triazin-4(3H)-one] | > 100 µM | 1.10 | 1.02 | 1.32
16 | 83.71 ± 0.81 µM | > 100 µM | > 100 µM | O=c1n(-c2nc(-c3cccs3)cs2)ncc2cccn12 [Compound 32, 3-(4-(thiophen-2-yl)thiazol-2-yl)pyrrolo[1,2-d][1,2,4]triazin-4(3H)-one] | > 100 µM | 2.43 | 2.00 | 1.68
17 | > 100 µM | > 100 µM | > 100 µM | Cc1csc(-n2ncc3cccn3c2=O)n1 [Compound 13, 3-(4-methylthiazol-2-yl)pyrrolo[1,2-d][1,2,4]triazin-4(3H)-one] | > 100 µM | 1.01 | 1.32 | 0.94
